How the values were obtained:
male Wistar rat [1] = assay: Conditioned Defensive Burying (CDB) test; type: in vivo; conditions: the greater the stress, the higher the score
Description: The anti-stress effects of a PS1 polysaccharide, administered orally for 14 days, were evaluated in the male Wistar rat in the Conditioned Defensive Burying (CDB) test.
For this, the PS1 is administered by esophageal gavage daily at the doses of 0.7, 1.4 and 2.8 g/kg of body weight for 14 days (8 rats per group). Similarly, a vehicle control represented by spring water is administered under the same conditions. The reference positive control is diazepam: from D0 to D13, methylcellulose is administered to the rats, and on D14, diazepam at 1 mg/kg or 3 mg/kg of body weight is administered to the rats. The PS1 and diazepam mixture is also studied: the PS1 is administered for 14 days alone, and on D14, diazepam at 1 mg/kg is added to the esophageal gavage of the PS1.
On D14, the rats are subjected to the Conditioned Defensive Burying (CDB) test. For this, an electric probe is inserted into a cage before the start of the test. Each rat is placed in the experimental device on the opposite side to the probe and a single electric shock, of weak intensity (2 mA), is delivered to the animal at the moment it places its front paw on the probe for the first time. Following the shock, the behavior of the rat is recorded for five minutes; an overall stress score is attributed for each rat. The greater the stress, the higher the score.

male Wistar rat [2] = assay: Functional observational battery (FOB); type: in vivo; conditions: diazepam 3 mg/kg on D14; for Spontaneous activity on D14 (score): score 0=excited, 1 to 3 moderate rapid movements, 4 no activity; for Finger approach reaction on D14 (score): score 0=none, 1 to 3=slight to strong escape; for Respiratory rate on D14 (score): score 0=slow, 1=normal, 2 rapid
Description: The effects of an oligosaccharide administered orally at doses of 0.7 and 1.4 g/kg for 14 days were evaluated in a functional observational battery (FOB) in the male Wistar rat. The objective of this FOB test is to evaluate the change in behavioral, neurological and physiological parameters of the rats according to the products tested.
For this, a polysaccharide (PS1) as defined in table 1 is administered by esophageal gavage daily at these two doses for 14 days (6 rats per group). Similarly, a vehicle control consisting of spring water is administered under these conditions. The reference positive control is diazepam: from D0 to D13, methylcellulose is administered to the rats and on D14, diazepam at 3 mg/kg of body weight is also administered.
The animals are subjected to the functional observational battery before treatment on D0 and at the end of the study on D14.
Each test comprises three observational phases: • a direct observational phase during which the animal is not disturbed, • an active observational phase during which the animal is handled, • a phase devoted to evaluating the reactions of the animals to reactivity tests.
Several variables are recorded: • Behavioral effects: spontaneous locomotor activity, locomotor behavior disorders, emotionality (vocalization frequency), touch escape reaction, irritability, provoked aggressiveness and freezing behaviors, sleeping/awakening, urination and defecation, sensorimotor responses (visual placing, toe pinch and sound stimulus reaction). • Neurological effects: pupillary response, palpebral reflex, pelvic elevation, tail position, limb and abdominal muscle tone, righting test, grip strength test, suspension test, tremors and piloerection. • Physiological effects: salivation, lacrimation, diarrhea, rectal temperature, heart and respiratory rate.
Definition of the scores: • Spontaneous activity: 0=excited; 1 to 3 moderate rapid movements; 4: no activity. • Finger approach reaction: 0=none; 1 to 3=slight to strong escape. • Respiratory rate: 0=slow; 1=normal; 2 rapid. • Sound stimulus startle reaction: 0=slight; 1=<1 cm; 2=>1 cm.

In the case of CN1C(=O)CN=C(c2ccccc2)c2cc(Cl)ccc21 [Diazepam, diazepam], the “Overall stress score (Mean ± SEM)” value (male Wistar rat [1]; diazepam 1 mg/kg on D14) is reported as 92.57 ± 17.99, the “Overall stress score (Mean ± SEM)” value (male Wistar rat [1]; diazepam 3 mg/kg on D14) is reported as 65.25 ± 7.15 and the “Overall stress score (Mean ± SEM)” value (male Wistar rat [1]; diazepam 3 mg/kg on D14, listed as diazepam) is reported as “significantly lower than that of the vehicle group”. The “Heart rate on D14, in comparison with the vehicle” value (male Wistar rat [2]) was “significantly slower”, the “Spontaneous activity on D14 (score)” value (male Wistar rat [2]) was 2.16 and the “Spontaneous activity on D14 (score)” value (male Wistar rat [2]; listed as reference) was “tend to be significantly less active”. For the same compound, the “Finger approach reaction on D14 (score)” value (male Wistar rat [2]) was 0.18, the “Finger approach reaction on D14 (score)” value (male Wistar rat [2]; listed as reference) was “significantly less reactive to a finger approach” and the “Sound stimulus startle reaction on D14 (score)” value (male Wistar rat [2]; score 0=slight, 1=<1 cm, 2=>1 cm) was 0.00. For the same compound, the “Respiratory rate on D14 (score)” value (male Wistar rat [2]) was 1.14 and the “Respiratory rate on D14 (score)” value (male Wistar rat [2]; listed as reference) was “significantly slower”.

— patent US20120283212A1, “USE OF POLYSACCHARIDES FOR TREATING STRESS AND ANXIETY” (ROQUETTE FRERES, priority 2009, published 2012)
